SMILES strings stand for the structures.

The experiment concerns NL-RLuc virus. The experiment is described as follows: Inhibition of HIV Replication (NL-RLuc luciferase reporter virus in MT-2 cells). Type of experiment: cell-based. Conditions: Human immunodeficiency virus 1, MT2, 120 h. An excerpt: Inhibition of HIV Replication:
A recombinant NL-RLuc proviral clone was constructed in which a section of the nef gene from NL4-3 was replaced with the Renilla Luciferase gene. This virus is fully infectious and can undergo multiple cycles of replication in cell culture. In addition, the luciferous reporter provides a simple and easy method for quantitating the extent of virus growth and consequently, the antiviral activity of test compounds. The plasmid pNLRLuc contains the proviral NL-Rluc DNA cloned into pUC18 at the PvuII site. The NL-RLuc virus was prepared by transfection of 293T cells with the plasmid pNLRLuc. Transfections were performed using the LipofectAMINE PLUS kit from Invitrogen (Carlsbad, Calif.) according to the manufacturer and the virus generated was titered in MT-2 cells. For susceptibility analyses, the titrated virus was used to infect MT-2 cells in the presence of compound, and after 5 days of incubation, cells were processed and quantitated for virus growth by the amount of expressed luciferase. Assay media was RPMI 1640 supplemented with 10% heat inactivated fetal bovine serum (FBS), 100 units/ml penicillin G/100 units/ml streptomycin, 10 mM HEPES buffer pH 7.55 and 2 mM L-glutamine. The results from at least 2 experiments were used to calculate the EC50 values. Luciferase was quantitated using the Dual Luciferase kit from Promega (Madison, Wis.). Susceptibility of viruses to compounds was determined by incubation in the presence of serial dilutions of the compound. The 50% effective concentration (EC50) was calculated by using the exponential form of the median effect equation where (Fa)=1/[1+(ED50/drug conc.)^m] (Johnson V A, Byington R T. Infectivity Assay. In Techniques in HIV Research. ed. Aldovini A, Walker B D. 71-76. New York: Stockton Press. 1990).
`Cc1nc(C)c([C@H](OC(C)(C)C)C(=O)O)c(N2CCC(C)(C)CC2)c1-c1ccc(OCCc2ccc(Cl)cc2)cc1` [Example 26, (S)-2-(tert-butoxy)-2-(5-(4-(4-chlorophenethoxy)phenyl)-4-(4,4-dimethylpiperidin-1-yl)-2,6-dimethylpyridin-3-yl)acetic acid] had a concentration giving a half-maximal response (EC50) of 0.017 µM.

Regarding `Cc1nc(C)c([C@H](OC(C)(C)C)C(=O)O)c(N2CCC(C)(C)CC2)c1-c1ccc(OCCc2ccc(Cl)c(F)c2)cc1` [Example 27, (S)-2-(tert-butoxy)-2-(5-(4-(4-chloro-3-fluorophenethoxy)phenyl)-4-(4,4-dimethylpiperidin-1-yl)-2,6-dimethylpyridin-3-yl)acetic acid], the EC50 was 0.012 µM.

`Cc1ccc(CCOc2ccc(-c3c(C)nc(C)c([C@H](OC(C)(C)C)C(=O)O)c3N3CCC(C)(C)CC3)cc2)cc1` [Example 28, (S)-2-(tert-butoxy)-2-(4-(4,4-dimethylpiperidin-1-yl)-2,6-dimethyl-5-(4-(4-methylphenethoxy)phenyl)pyridin-3-yl)acetic acid] had an EC50 of 0.019 µM.

`Cc1nc(C)c([C@H](OC(C)(C)C)C(=O)O)c(N2CCC(C)(C)CC2)c1-c1ccc(OCC(C)(C)c2ccc(Cl)cc2)cc1` [Example 29, (S)-2-(tert-butoxy)-2-(5-(4-(2-(4-chlorophenyl)-2-methylpropoxy)phenyl)-4-(4,4-dimethylpiperidin-1-yl)-2,6-dimethylpyridin-3-yl)acetic acid] gave a concentration giving a half-maximal response (EC50) of 0.015 µM.

With `Cc1nc(C)c([C@H](OC(C)(C)C)C(=O)O)c(N2CCC(C)(C)CC2)c1-c1ccc(OCCc2ccc3ccccc3c2)cc1` [Example 30, (S)-2-(tert-butoxy)-2-(4-(4,4-dimethylpiperidin-1-yl)-2,6-dimethyl-5-(4-(2-(naphthalen-2-yl)ethoxy)phenyl)pyridin-3-yl)acetic acid], the concentration giving a half-maximal response (EC50) was found to be 0.006 µM.

The compound `Cc1nc(C)c([C@H](OC(C)(C)C)C(=O)O)c(N2CCC(C)(C)CC2)c1-c1ccc(OCCc2ccc(OCc3ccccc3)cc2)cc1` [Example 31, (S)-2-(5-(4-(4-(benzyloxy)phenethoxy)phenyl)-4-(4,4-dimethylpiperidin-1-yl)-2,6-dimethylpyridin-3-yl)-2-(tert-butoxy)acetic acid] gave a concentration for a half-maximal effect (EC50) of 0.047 µM.

`Cc1nc(C)c([C@H](OC(C)(C)C)C(=O)O)c(N2CCC(C)(C)CC2)c1-c1ccc(OCC(C)c2ccc(F)cc2)cc1` (stereo partly drawn) [Example 32, (2S)-2-(tert-butoxy)-2-(4-(4,4-dimethylpiperidin-1-yl)-5-(4-(2-(4-fluorophenyl)propoxy)phenyl)-2,6-dimethylpyridin-3-yl)acetic acid]: it took 0.011 µM to reach a half-maximal effect (EC50).

For the compound `Cc1nc(C)c([C@H](OC(C)(C)C)C(=O)O)c(N2CCC(C)(C)CC2)c1-c1ccc(OCCc2ccccn2)cc1` [Example 33, (S)-2-(tert-butoxy)-2-(4-(4,4-dimethylpiperidin-1-yl)-2,6-dimethyl-5-(4-(2-(pyridin-2-yl)ethoxy)phenyl)pyridin-3-yl)acetic acid], a half-maximal response (EC50) required 0.001 µM.

Take `CO[C@H](COc1ccc(-c2c(C)nc(C)c([C@H](OC(C)(C)C)C(=O)O)c2N2CCC(C)(C)CC2)cc1)c1ccccc1` [Example 34, (S)-2-(tert-butoxy)-2-(4-(4,4-dimethylpiperidin-1-yl)-5-(4-((S)-2-methoxy-2-phenylethoxy)phenyl)-2,6-dimethylpyridin-3-yl)acetic acid]: a half-maximal effect (EC50) was put at 0.011 µM.

Take `CO[C@@H](COc1ccc(-c2c(C)nc(C)c([C@H](OC(C)(C)C)C(=O)O)c2N2CCC(C)(C)CC2)cc1)c1ccccc1` [Example 35, (S)-2-(tert-butoxy)-2-(4-(4,4-dimethylpiperidin-1-yl)-5-(4-((R)-2-methoxy-2-phenylethoxy)phenyl)-2,6-dimethylpyridin-3-yl)acetic acid]: the concentration for a half-maximal effect (EC50) came out at 0.013 µM.

`COc1cccc(CCOc2ccc(-c3c(C)nc(C)c([C@H](OC(C)(C)C)C(=O)O)c3N3CCC(C)(C)CC3)cc2)c1` [Example 36, (S)-2-(tert-butoxy)-2-(4-(4,4-dimethylpiperidin-1-yl)-5-(4-(3-methoxyphenethoxy)phenyl)-2,6-dimethylpyridin-3-yl)acetic acid] showed a concentration giving a half-maximal response (EC50) of 0.002 µM.

`Cc1nc(C)c([C@H](OC(C)(C)C)C(=O)O)c(N2CCC(C)(C)CC2)c1-c1ccc(OCCc2ccncc2)cc1` [Example 37, (S)-2-(tert-butoxy)-2-(4-(4,4-dimethylpiperidin-1-yl)-2,6-dimethyl-5-(4-(2-(pyridin-4-yl)ethoxy)phenyl)pyridin-3-yl)acetic acid] displayed an EC50 of 0.001 µM.

Regarding `Cc1nc(C)c([C@H](OC(C)(C)C)C(=O)O)c(N2CCC(C)(C)CC2)c1-c1ccc(OCCc2cccc3ccccc23)cc1` [Example 38, (S)-2-(tert-butoxy)-2-(4-(4,4-dimethylpiperidin-1-yl)-2,6-dimethyl-5-(4-(2-(naphthalen-1-yl)ethoxy)phenyl)pyridin-3-yl)acetic acid], the concentration for a half-maximal effect (EC50) turned out to be 0.006 µM.

The compound `Cc1nc(C)c([C@H](OC(C)(C)C)C(=O)O)c(N2CCC(C)(C)CC2)c1-c1ccc(OCCc2ccccc2)cc1` [Example 39, (S)-2-(tert-butoxy)-2-(4-(4,4-dimethylpiperidin-1-yl)-2,6-dimethyl-5-(4-phenethoxyphenyl)pyridin-3-yl)acetic acid] showed a concentration for a half-maximal effect (EC50) of 0.002 µM.

Compound `Cc1ncsc1CCOc1ccc(-c2c(C)nc(C)c([C@H](OC(C)(C)C)C(=O)O)c2N2CCC(C)(C)CC2)cc1` [Example 40, (S)-2-(tert-butoxy)-2-(4-(4,4-dimethylpiperidin-1-yl)-2,6-dimethyl-5-(4-(2-(4-methylthiazol-5-yl)ethoxy)phenyl)pyridin-3-yl)acetic acid] had an EC50 of 0.001 µM.

`Cc1nc(C)c([C@H](OC(C)(C)C)C(=O)O)c(N2CCC(C)(C)CC2)c1-c1ccc(OCCc2cccnc2)cc1` [Example 41, (S)-2-(tert-butoxy)-2-(4-(4,4-dimethylpiperidin-1-yl)-2,6-dimethyl-5-(4-(2-(pyridin-3-yl)ethoxy)phenyl)pyridin-3-yl)acetic acid] came in with a half-maximal effective concentration (EC50) of 0.001 µM.

Regarding `Cc1nc(CCOc2ccc(-c3c(C)nc(C)c([C@H](OC(C)(C)C)C(=O)O)c3N3CCC(C)(C)CC3)cc2)cs1` [Example 42, (S)-2-(tert-butoxy)-2-(4-(4,4-dimethylpiperidin-1-yl)-2,6-dimethyl-5-(4-(2-(2-methylthiazol-4-yl)ethoxy)phenyl)pyridin-3-yl)acetic acid], a half-maximal effect (EC50) was put at 0.004 µM.

`Cc1nc(C)c([C@H](OC(C)(C)C)C(=O)O)c(N2CCC(C)(C)CC2)c1-c1ccc(OCc2cncs2)cc1` [Example 43, (S)-2-(tert-butoxy)-2-(4-(4,4-dimethylpiperidin-1-yl)-2,6-dimethyl-5-(4-(thiazol-5-ylmethoxy)phenyl)pyridin-3-yl)acetic acid] displayed a concentration for a half-maximal effect (EC50) of 0.014 µM.

In the case of `Cc1nc(C)c(COc2ccc(-c3c(C)nc(C)c([C@H](OC(C)(C)C)C(=O)O)c3N3CCC(C)(C)CC3)cc2)s1` [Example 44, (S)-2-(tert-butoxy)-2-(4-(4,4-dimethylpiperidin-1-yl)-5-(4-((2,4-dimethylthiazol-5-yl)methoxy)phenyl)-2,6-dimethylpyridin-3-yl)acetic acid], the EC50 turned out to be 0.012 µM.

Take `Cc1nc(-c2ccccc2)sc1COc1ccc(-c2c(C)nc(C)c([C@H](OC(C)(C)C)C(=O)O)c2N2CCC(C)(C)CC2)cc1` [Example 45, (S)-2-(tert-butoxy)-2-(4-(4,4-dimethylpiperidin-1-yl)-2,6-dimethyl-5-(4-((4-methyl-2-phenylthiazol-5-yl)methoxy)phenyl)pyridin-3-yl)acetic acid]: the concentration giving a half-maximal response (EC50) came out at 0.029 µM.

`COc1cccc(CCOc2ccc(-c3c(C)nc(C)c([C@H](OC(C)(C)C)C(=O)O)c3N3CCC(C)(C)CC3)cc2OCCc2cccc(OC)c2)c1` [Example 46, (S)-2-(5-(3,4-bis(3-methoxyphenethoxy)phenyl)-4-(4,4-dimethylpiperidin-1-yl)-2,6-dimethylpyridin-3-yl)-2-(tert-butoxy)acetic acid] returned a 50% effective concentration (EC50) of 0.014 µM.

In turn, `Cc1nc(C)c([C@H](OC(C)(C)C)C(=O)O)c(N2CCC(C)(C)CC2)c1-c1ccc(OCc2cnc(Cl)s2)cc1` [Example 47, (S)-2-(tert-butoxy)-2-(5-(4-((2-chlorothiazol-5-yl)methoxy)phenyl)-4-(4,4-dimethylpiperidin-1-yl)-2,6-dimethylpyridin-3-yl)acetic acid] came in with an EC50 of 0.018 µM.

As for `Cc1nc(C)c(CCOc2ccc(-c3c(C)nc(C)c([C@H](OC(C)(C)C)C(=O)O)c3N3CCC(C)(C)CC3)cc2)s1` [Example 48, (S)-2-(tert-butoxy)-2-(4-(4,4-dimethylpiperidin-1-yl)-5-(4-(2-(2,4-dimethylthiazol-5-yl)ethoxy)phenyl)-2,6-dimethylpyridin-3-yl)acetic acid], the concentration for a half-maximal effect (EC50) came out at 0.001 µM.

Compound `Cc1nc(C)c([C@H](OC(C)(C)C)C(=O)O)c(N2CCC(C)(C)CC2)c1-c1ccc(OCC(C)(C)c2ccc(F)cc2)cc1` [Example 49, (S)-2-(tert-butoxy)-2-(4-(4,4-dimethylpiperidin-1-yl)-5-(4-(2-(4-fluorophenyl)-2-methylpropoxy)phenyl)-2,6-dimethylpyridin-3-yl)acetic acid] returned a half-maximal effective concentration (EC50) of 0.034 µM.

(Values after patent US9193720B2, “Pyridin-3-yl acetic acid derivatives as inhibitors of human immunodeficiency virus replication” (priority 2014, dated 2015).)
